Results taken from patent publication US20250204535A1, “Rodenticide” (priority 2022, published 2025).
Where no end group is shown, it is not given here.

Legend:
Format in all cases: cell-based
[1] = tested on: Human IPSC-derived cardiomyocytes; assay: Screening synthetic peptides for alterations to human IPSC-derived cardiomyocyte beat rates; conditions: 2 h; dose not stated in the sentence (no increase at 0.1, 1 and 10 μg/ml)
Experimental: The baseline beat rate of neonatal rat and human IPSC-derived cardiomyocytes to be treated with the three synthetic fractions were determined by video microscopy of each well in triplicate using a microscope camera. Average beats/min were calculated from the triplicate readings of three separate wells (n=9). Aliquots of each peptide were taken to treat neonatal rat cardiomyocyte cells at doses of 100, 10, 1 and 0.1 μg/ml. Cells were returned to a humidified incubator at 37° C., 5% CO2 for 2 h. After 2 h the beat rate of the treated cardiomyocyte cells was reassessed using the same method used to obtain the pre-dosing beat data. This process was repeated 24 h after the addition of the synthetic peptides.

[2] = tested on: neonatal rat cardiac fibroblast cells; assay: Screening purified venom fractions for rat cardiac fibroblast toxicity (resazurin); conditions: neonatal rat cardiac fibroblasts
Experimental: Hearts were collected from euthanised 1-2-day old neonatal rat pups and transferred into filter sterilised ice-cold Hanks balanced salt solution (HBSS) containing 2% Pen-strep. Hearts were washed in the HBSS, any non-heart tissue removed and then cut into 1-3 mm pieces and placed in 40 ml filter sterilised, ice cold 0.1% trypsin/HBSS. The heart pieces in trypsin were place in a large ice bucket and incubated overnight at 4° C. on a rocker with gentle agitation to allow the tissue to digest.
The following day, all trypsin was aspirated from the tissue and the tissue transferred evenly into 2 ml Eppendorf tubes. The tissue was then digested further using a 37° C. 1 mg/ml collagenase/HBSS (filter sterilised) solution. For each collagenase digestion, 2 ml of enzyme buffer was added to all Eppendorf tubes and the tubes incubated in a 37° C. heating block for 2 mins with 400 rpm agitation. The supernatant from the first two digestions was discarded. After each of the following digestion steps, the tissue was gently triturated using a pipette to release cells. Once trituration was complete the supernatant was retained, added to a tube containing 10 ml cell culture media and stored on ice.
All cell containing supernatants were filtered through a 250 μm cell strainer to remove any potentially undigested tissue and myocytes separated from cardiac fibroblast by spinning the supernatant at 1800 g for 45 mins through a Percoll gradient. […]
Neonatal rat cardiomyocytes and cardiac fibroblasts were treated with purified venom fractions suspected of being cardiotoxins at doses of 12.5, 7.5, 6 μg/ml, with rat cardiomyocytes being treated at additional concentrations of 3.5, 2.5, 1 and 0.5 μg/ml for 2 hs in a humidified incubator at 37° C., 5% CO2. […] The change in fluorescence of the resazurin dye was monitored over a 5 h timeframe using a BMG Fluostar plate reader. Percent inhibition of both cell types in response to each fraction at each dose were calculated and plotted graphically.

[3] = tested on: Neonatal rat cardiomyocytes; assay: Screening purified venom fractions for alterations to cardiomyocyte beat rates; conditions: for Highest Achieved Fold Increases in Beat Rate: 1 h; for fold increases to beat rate: dose of 6 μg/ml
Experimental: Neonatal rat cardiomyocytes were isolated as via standard protocol and seeded at a density of 100,000 cells/96 well. Once myocyte cultures were beating spontaneously in uniform sheets, they were videoed well-by-well using a microscope camera to determine pre-dose beat rates/min. […] Cells were incubated in each fraction in a humidified incubator at 37° C., 5% CO2 for 1 h. After 1 h videos of the cells were re-recorded to obtain the post-dosing beat rate/minute. Fold changes in beat frequency were calculated for each dosed well pair.

[4] = tested on: rat neonatal cardiomyocyte cells; conditions: 37, 60, 80, 100° C.; 6 μg/ml; rat cardiomyocytes; FIG. 4
Experimental: Thermal stability of the six lead fractions was investigated. Aliquots of each fraction were heated in a heat block to 37° C. (unheated), 60° C., 80° C. and 100° C. before being used to treat rat neonatal cardiomyocyte cells at a dose of 6 μg/ml. Cardiomyocyte toxicity was assessed after 24 hrs of dosing at each temperature against a similar aliquot of each fraction that had been unheated before dosing. After 24 h, 160 μM Resazurin dye was added to all cells and the change in cardiomyocyte cell viability/metabolism monitored every hour up to 5 h post dye addition. An additional measurement was recorded 24 hs after the dye had been added.

[5] = tested on: Human IPSC-derived cardiomyocytes; assay: Screening synthetic peptides for human IPSC-derived cardiomyocyte toxicity (resazurin, 24 h); conditions: 10 μg/ml, toxicity control
Experimental: (§1) Human IPSC-derived cardiomyocytes were purchased from Axol Biosciences and cultured as via their standard methodology. Briefly, cells were recovered from liquid nitrogen storage when required and the cells transferred dropwise into 10 ml of pre-warmed (37° C.) plating media (cardiomyocyte maintenance media+10% FCS+10 μM ROCK inhibitor). Cells were centrifuged at 200×g for 5 mins at room temperature. The supernatant was aspirated from the cell pellet and the cell pellet gently resuspended in 1 ml plating media. Cells were counted using a haemocytometer and trypan blue staining. Cells were plated at a seeding density of 10-20,000 cells/well in fibronectin pre-coated 384 well plates. Cells were incubated at 37° C., 5% CO2 in a humidified incubator overnight before the plating media was removed the following day and replace with fresh maintenance media (No FCS, no ROCK inhibitor). Partial media changes were performed every 2-days until cells formed a single continuous sheet of spontaneously beating cardiomyocytes (7-10 day in culture).
(§2) Rat neonatal cardiomyocytes, Embryonic chick cardiomyocytes, human IPSC-derived cardiomyocytes and rat cardiac fibroblast were cultured. […] After 24 h Resazurin dye was added to each well at a final concentration of 160 μM and the change in fluorescence of the dye monitored and recorded over a 24 h time period.

[6] = tested on: Embryonic chick cardiomyocytes; assay: Screening synthetic peptides for embryonic chick cardiomyocyte toxicity (resazurin, 24 h); conditions: 10 μg/ml, toxicity control
Experimental: Hearts were collected from euthanised 12-13 day old embryonic chicks and transferred into filter sterilized ice-cold hanks balanced salt solution (HBSS) containing 2% Pen-strep. Hearts were washed in the HBSS to remove blood, any non-heart tissue removed and then cut into 1-3 mm pieces and placed in 40 ml filter sterilized, ice cold 0.05% trypsin/HBSS. The heart pieces in trypsin were place in a large ice bucket and incubated for 1 h on a rocker with gentle agitation to allow the tissue to digest.
All trypsin was aspirated from the tissue and discarded, and the tissue transferred evenly into 2 ml Eppendorf tubes. The tissue was then digested further using a 1 mg/ml Collagenase II/0.1% Trypsin/HBSS (filter sterilized) solution. For each digestion, 2 ml of enzyme buffer was added to all Eppendorf tubes and the tubes incubated in a 37° C. heating block for 3 mins with 400 rpm agitation. The supernatant from the first two digestions was discarded. After each of the following digestion steps, the tissue was gently triturated using a Pasteur pipette to release cells. […]
as §2

[7] = tested on: Human IPSC-derived cardiomyocytes; assay: Six lead fractions: toxicity to human IPSC-derived cardiomyocytes (resazurin); conditions: 3.5 μg/ml
Experimental: as §1
Once beating spontaneously, cells were treated with the six lead fractions diluted in maintenance media to final working concentrations of 7.5, 6, 3.5, 2.5 and 1 μg/ml. 30 μl of each fraction dilution was added to triplicate wells of cells and incubated for 2 h at 37° C., 5% CO2 in a humidified incubator. After 2 h, resazurin dye at a final working concentration of 160 μM were added to all wells and the change in fluorescence of the plate monitored over a 5 h timeframe using a BMG Labtech Fluostar plate reader. Percent toxicity was calculated from triplicate wells at each dose and plotted graphically.
Human IPSC derived cardiomyocytes were dosed in triplicate with a serial dilution of each of the six venom fractions (7.5, 6, 3.5, 2.5 and 1 μg/ml) for 2 hs at 37° C., 5% CO2 before resazurin dye was added and the change in colour and fluorescence monitored for the following 5 hrs. Percentage toxicity was calculated for each fraction at all doses and plotted graphically (FIG. 3).

Substance | increase to the beat rate of human cardiomyocytes over pre-dosing beat rate [1] [fold] | doses showing cardiac fibroblast toxicity [2] [µg/mL] | Highest Achieved Fold Increases in Beat Rate ([3]; Dose 1 μg/ml) [fold] | fold increases to beat rate [3] | thermal stability (change in cytotoxic activity after heating) [4] | toxicity against human IPSC-derived cardiomyocytes [5] | toxicity against embryonic chick cardiomyocytes [6] | Highest Achieved Fold Increases in Beat Rate ([3]; Dose 6 μg/ml) [fold] | toxicity in human IPSC-derived cells compared to rodent cardiomyocytes [7]
LKCNKLIPLAYKT [Synthetic peptide 2] | 1.5 | – | – | – | – | – | – | – | –
N.nig_I19_R4 (LKCNKLIPIAYKTCPEGKNLCYKMMLASKKMVPVKRGCIDVCPKDSALVKYVCCSTDRCN) | – | 12.5 | 6.25 | greater than 5.5 fold | no significant changes in the activity | ≈ 90% | ≈ 90% | – | –
N.nka_I18_R4 (LKCNKLIPLAYKTCPAGKDLCYKMYMVSDKTVPVKRGCIDVCPKNSLLVKYECCNTDRCN) | – | – | – | greater than 7 fold | no significant changes in the activity | ≈ 90% | ≈ 90% | 7.00 | reduction in toxicity
